The subject of test [1] is Lactobacillus crispatus CIP 103604. Briefly: In vitro UV model: bacterial survival upon UV irradiation (96-well, MPN count). In kind it is cell-based. Conditions: sample 20% v/v, UV 50 SED (500 mJ/cm^2 UVA+UVB), after 4 h; for L. crispatus survival: compared to untreated and non-irradiated control. On the procedure:
(§1) The microbial strains used in this study are listed below and their cultures are reconstituted according to the direction of the supplier collection center of the reference strain, CRBIP (Institut Pasteur Collection, France) or ATCC (American Type Culture Collection, USA): • Lactobacillus crispatus CIP 103604 • Staphylococcus epidermidis ATCC 12228 The 96-well plate was filled with the culture media (140 μL) and a calibrated inoculum (20 μL) of each bacterial strain was added to reach […] colony forming units per milliliter (cfu/mL) final concentration. After contamination, the sample was added (40 μL; 20% v/v) in triplicate and was thoroughly mixed to ensure a homogeneous distribution. Then, the plate was submitted to UV stress through an UV irradiator system (BioSun, Vilber Lourmat, France) according to the UV doses presented Table 1 below. The specific UV dose selected was between 10 and 49% survival of the microbial population. For the microbial population counts, aliquots of the contaminated samples of L. crispatus and S. epidermidis were serially diluted (4 decimal dilutions followed by 8 binary dilutions, in triplicate) in culture media on 96-wells plates with triphenyltetrazolium. Then, the plates were incubated at 37° C.±2,5° C. during 48 h taking into account the respiratory type of each strain. After 48 h at the optimal growing conditions, the last dilution showing a pink color (triphenyltetrazolium) or turbidity indicated the contamination rate and allowed the determination of the decrease rate of microbial population (most probable number MPN method). Controls performed during this experiment were the culture medium with bacteria incubated without UV stress. The microbial population counts were expressed in cfu/mL and were the average of experiment done in triplicate. The use level of the single UV filter and combinations in the test formulations was calculated to obtain a predicted in vitro SPF value of 5.75+/−0.15 and 23.45+/−0.65, respectively (Table 2). The UV filters were mixed in the two oils, Tegosoft XC (55%) and Miglyol 829 Eco (ad100%) and the emulsifier Tween 80 (5%). The effect of selected UV irradiation conditions on the survival of microbial population of L. crispatus and S. epidermidis in the presence of the tested samples 1-10 at 20% v/v, was compared with the corresponding strain in the absence of samples 1-10 and without exposure to UV irradiation (control). The results after the 4-hour incubation were compared to the population of bacteria incubated without UV stress (determination of bacterial population survival) and were expressed in percentage of survival. The relative percentage of protection (%) was calculated from the difference between the survival percentages of samples and vehicle control (with UV irradiation) and divided to the survival percentage of the vehicle control. Consequently, the survival of each microbial population and the relative protection by the UV filter(s) were calculated and are summarized in the Table 2.

The subject of test [2] is Staphylococcus epidermidis ATCC 12228. The test is described as above. It is filed as cell-based. Conditions: sample 20% v/v, UV 15 SED (150 mJ/cm^2 UVA+UVB), after 4 h; for S. epidermidis survival: compared to untreated and non-irradiated control. On the procedure:
as §1

Regarding `CCCCC(CC)COC(=O)C(C#N)=C(c1ccccc1)c1ccccc1` (stereo not shown) [Inv. 1, Octocrylene], in test [1], the “L. crispatus relative protection by the UV filter(s) vs. vehicle control” value (from here on “L. crispatus relative protection”) is recorded as “(+300) %” and the L. crispatus survival was determined as 50%. For the same compound, in test [2], the “S. epidermidis relative protection by the UV filter(s) vs. vehicle control” value (“S. epidermidis relative protection” below) is recorded as “(+59) %” and the S. epidermidis survival was determined as 63%.

As for `CCCCC(CC)COC(=O)c1ccc(Nc2nc(Nc3ccc(C(=O)OCC(CC)CCCC)cc3)nc(Nc3ccc(C(=O)OCC(CC)CCCC)cc3)n2)cc1` (stereo not shown) [Inv. 3, Ethylhexyl Triazone], in test [1], the “L. crispatus relative protection” value is “(+100) %” and the L. crispatus survival worked out at 25%. In test [2], the “S. epidermidis relative protection” value is reported as “(+59) %” and the S. epidermidis survival is 63%.

In the case of `CCCCC(CC)COc1ccc(-c2nc(-c3ccc(OC)cc3)nc(-c3ccc(OCC(CC)CCCC)cc3O)n2)c(O)c1` (stereo not shown) [Ref. 2, Bis-Ethylhexyloxyphenol Methoxyphenyl Triazine], in test [1], the “L. crispatus relative protection” value was “(+59) %” and the L. crispatus survival came to 20%. Further, in test [2], the “S. epidermidis relative protection” value is “(+100) %” and the S. epidermidis survival is recorded as 79%.

For `CCCCC(CC)COC(=O)c1ccccc1O` (stereo not shown) [Ref. 1, Ethylhexyl Salicylate], in test [1], the “L. crispatus relative protection” value is listed as “(+59) %” and the L. crispatus survival stood at 20%. Besides, in test [2], the “S. epidermidis relative protection” value is on record as “(+100) %” and the S. epidermidis survival is reported as 79%.

(Values after patent US20250360069A1, “SUNSCREEN COMPOSITION FOR LACTOBACILLUS AND S. EPIDERMIDIS PROTECTION ON SKIN” (DSM IP Assets B.V., priority 2022, published 2025).)
